In ChEMBL document CHEMBL4411296, “Design and development of Isatin-triazole hydrazones as potential inhibitors of microtubule affinity-regulating kinase 4 for the therapeutic management of cell proliferation and metastasis” (Eur J Med Chem, 2019):

Experiments:
Assay type in all cases: functional
[1] = tested on: CCRF-CEM; experiment: Growth inhibition of human CCRF-CEM cells assessed as cell growth at 10 uM after 48 hrs by sulforhodamine B assay relative to control; conditions: read-out: Activity
[2] = tested on: HL-60(TB); experiment: Growth inhibition of human HL-60(TB) cells assessed as cell growth at 10 uM after 48 hrs by sulforhodamine B assay relative to control; conditions: HL-60, 48 h, read-out: Activity
[3] = tested on: RPMI-8226; experiment: Growth inhibition of human RPMI8226 cells assessed as cell growth at 10 uM after 48 hrs by sulforhodamine B assay relative to control; conditions: RPMI-8226, 48 h, read-out: Activity
[4] = tested on: SR; experiment: Growth inhibition of human SR cells assessed as cell growth at 10 uM after 48 hrs by sulforhodamine B assay relative to control; conditions: read-out: Activity
[5] = tested on: A549; experiment: Growth inhibition of human A549/ATCC cells assessed as cell growth at 10 uM after 48 hrs by sulforhodamine B assay relative to control; conditions: A549, 48 h, read-out: Activity
[6] = tested on: EKVX; experiment: Growth inhibition of human EKVX cells assessed as cell growth at 10 uM after 48 hrs by sulforhodamine B assay relative to control; conditions: read-out: Activity
[7] = tested on: HOP-92; experiment: Growth inhibition of human HOP92 cells assessed as cell growth at 10 uM after 48 hrs by sulforhodamine B assay relative to control; conditions: HOP-92, 48 h, read-out: Activity
[8] = tested on: NCI-H460; experiment: Growth inhibition of human NCI-H460 cells assessed as cell growth at 10 uM after 48 hrs by sulforhodamine B assay relative to control; conditions: NCI-H460, 48 h, read-out: Activity
[9] = tested on: NCI-H522; experiment: Growth inhibition of human NCI-H522 cells assessed as cell growth at 10 uM after 48 hrs by sulforhodamine B assay relative to control; conditions: NCI-H522, 48 h, read-out: Activity
[10] = tested on: HCC 2998; experiment: Growth inhibition of human HCC2998 cells assessed as cell growth at 10 uM after 48 hrs by sulforhodamine B assay relative to control; conditions: HCC 2998, 48 h, read-out: Activity
[11] = tested on: HCT-116; experiment: Growth inhibition of human HCT116 cells assessed as cell growth at 10 uM after 48 hrs by sulforhodamine B assay relative to control; conditions: HCT-116, 48 h, read-out: Activity
[12] = tested on: KM12; experiment: Growth inhibition of human KM12 cells assessed as cell growth at 10 uM after 48 hrs by sulforhodamine B assay relative to control; conditions: KM12, 48 h, read-out: Activity
[13] = tested on: SF-268; experiment: Growth inhibition of human SF268 cells assessed as cell growth at 10 uM after 48 hrs by sulforhodamine B assay relative to control; conditions: SF-268, 48 h, read-out: Activity
[14] = tested on: SF-295; experiment: Growth inhibition of human SF295 cells assessed as cell growth at 10 uM after 48 hrs by sulforhodamine B assay relative to control; conditions: SF-295, 48 h, read-out: Activity
[15] = tested on: U-251; experiment: Growth inhibition of human U251 cells assessed as cell growth at 10 uM after 48 hrs by sulforhodamine B assay relative to control; conditions: U-251, 48 h, read-out: Activity
[16] = tested on: Malme-3M; experiment: Growth inhibition of human MALME-3M cells assessed as cell growth at 10 uM after 48 hrs by sulforhodamine B assay relative to control; conditions: read-out: Activity
[17] = tested on: M14; experiment: Growth inhibition of human M14 cells assessed as cell growth at 10 uM after 48 hrs by sulforhodamine B assay relative to control; conditions: M14, 48 h, read-out: Activity
[18] = tested on: MDA-MB-435; experiment: Growth inhibition of human MDA-MB-435 cells assessed as cell growth at 10 uM after 48 hrs by sulforhodamine B assay relative to control; conditions: MDA-MB-435, 48 h, read-out: Activity
[19] = tested on: SK-MEL-2; experiment: Growth inhibition of human SK-MEL-2 cells assessed as cell growth at 10 uM after 48 hrs by sulforhodamine B assay relative to control; conditions: SK-MEL-2, 48 h, read-out: Activity
[20] = tested on: UACC-257; experiment: Growth inhibition of human UACC257 cells assessed as cell growth at 10 uM after 48 hrs by sulforhodamine B assay relative to control; conditions: UACC-257, 48 h, read-out: Activity
[21] = tested on: IGROV-1; experiment: Growth inhibition of human IGROV1 cells assessed as cell growth at 10 uM after 48 hrs by sulforhodamine B assay relative to control; conditions: IGROV-1, 48 h, read-out: Activity
[22] = tested on: OVCAR-4; experiment: Growth inhibition of human OVCAR4 cells assessed as cell growth at 10 uM after 48 hrs by sulforhodamine B assay relative to control; conditions: OVCAR-4, 48 h, read-out: Activity
[23] = tested on: OVCAR-8; experiment: Growth inhibition of human OVCAR8 cells assessed as cell growth at 10 uM after 48 hrs by sulforhodamine B assay relative to control; conditions: OVCAR-8, 48 h, read-out: Activity
[24] = tested on: NCI/ADR-RES; experiment: Growth inhibition of human NCI/ADR-RES cells assessed as cell growth at 10 uM after 48 hrs by sulforhodamine B assay relative to control; conditions: read-out: Activity
[25] = tested on: 786-0; experiment: Growth inhibition of human 786-0 cells assessed as cell growth at 10 uM after 48 hrs by sulforhodamine B assay relative to control; conditions: 786-0, 48 h, read-out: Activity
[26] = tested on: A498; experiment: Growth inhibition of human A498 cells assessed as cell growth at 10 uM after 48 hrs by sulforhodamine B assay relative to control; conditions: A498, 48 h, read-out: Activity
[27] = tested on: CAKI-1; experiment: Growth inhibition of human Caki1 cells assessed as cell growth at 10 uM after 48 hrs by sulforhodamine B assay relative to control; conditions: CAKI-1, 48 h, read-out: Activity
[28] = tested on: RXF 393; experiment: Growth inhibition of human RXF393 cells assessed as cell growth at 10 uM after 48 hrs by sulforhodamine B assay relative to control; conditions: RXF 393, 48 h, read-out: Activity
[29] = tested on: TK-10; experiment: Growth inhibition of human TK10 cells assessed as cell growth at 10 uM after 48 hrs by sulforhodamine B assay relative to control; conditions: TK-10, 48 h, read-out: Activity
[30] = tested on: UO-31; experiment: Growth inhibition of human UO31 cells assessed as cell growth at 10 uM after 48 hrs by sulforhodamine B assay relative to control; conditions: UO-31, 48 h, read-out: Activity
[31] = tested on: PC-3; experiment: Growth inhibition of human PC3 cells assessed as cell growth at 10 uM after 48 hrs by sulforhodamine B assay relative to control; conditions: PC-3, 48 h, read-out: Activity
[32] = tested on: DU-145; experiment: Growth inhibition of human DU145 cells assessed as cell growth at 10 uM after 48 hrs by sulforhodamine B assay relative to control; conditions: DU-145, 48 h, read-out: Activity
[33] = tested on: Hs-578T; experiment: Growth inhibition of human Hs 578T cells assessed as cell growth at 10 uM after 48 hrs by sulforhodamine B assay relative to control; conditions: read-out: Activity
[34] = tested on: BT-549; experiment: Growth inhibition of human BT549 cells assessed as cell growth at 10 uM after 48 hrs by sulforhodamine B assay relative to control; conditions: BT-549, 48 h, read-out: Activity

COc1ccc(Cn2cc(C(=O)N/N=C3/C(=O)Nc4c(F)cccc43)nn2)cc1
growth at 10 µM [1]: 90.2% | growth at 10 µM [2]: 90.7% | growth at 10 µM [3]: 89.7% | growth at 10 µM [4]: 90.3% | growth at 10 µM [5]: 93.2% | growth at 10 µM [6]: 107% | growth at 10 µM [7]: 83.8% | growth at 10 µM [8]: 105% | growth at 10 µM [9]: 88.6% | growth at 10 µM [10]: 102% | growth at 10 µM [11]: 63.7% | growth at 10 µM [12]: 101% | growth at 10 µM [13]: 100% | growth at 10 µM [14]: 98% | growth at 10 µM [15]: 94.6% | growth at 10 µM [16]: 78.2% | growth at 10 µM [17]: 101% | growth at 10 µM [18]: 102% | growth at 10 µM [19]: 93.3% | growth at 10 µM [20]: 88.7% | growth at 10 µM [21]: 91.1% | growth at 10 µM [22]: 61.5% | growth at 10 µM [23]: 85.5% | growth at 10 µM [24]: 96.9% | growth at 10 µM [25]: 101% | growth at 10 µM [26]: 113% | growth at 10 µM [27]: 84.2% | growth at 10 µM [28]: 86.3% | growth at 10 µM [29]: 96% | growth at 10 µM [30]: 77% | growth at 10 µM [31]: 83.3% | growth at 10 µM [32]: 102% | growth at 10 µM [33]: 101% | growth at 10 µM [34]: 105%

COc1ccc(Cn2cc(C(=O)N/N=C3/C(=O)Nc4ccc(Cl)cc43)nn2)cc1
growth at 10 µM [1]: 94.7% | growth at 10 µM [2]: 93.2% | growth at 10 µM [3]: 109% | growth at 10 µM [4]: 80.6% | growth at 10 µM [5]: 103% | growth at 10 µM [6]: 106% | growth at 10 µM [7]: 116% | growth at 10 µM [8]: 102% | growth at 10 µM [9]: 90.6% | growth at 10 µM [10]: 107% | growth at 10 µM [11]: 107% | growth at 10 µM [12]: 97.7% | growth at 10 µM [13]: 98.9% | growth at 10 µM [14]: 108% | growth at 10 µM [15]: 107% | growth at 10 µM [16]: 95% | growth at 10 µM [17]: 110% | growth at 10 µM [18]: 104% | growth at 10 µM [19]: 99% | growth at 10 µM [20]: 113% | growth at 10 µM [21]: 106% | growth at 10 µM [22]: 100% | growth at 10 µM [23]: 105% | growth at 10 µM [24]: 115% | growth at 10 µM [25]: 99.8% | growth at 10 µM [26]: 96.6% | growth at 10 µM [27]: 101% | growth at 10 µM [28]: 103% | growth at 10 µM [29]: 84.8% | growth at 10 µM [30]: 90.7% | growth at 10 µM [31]: 94.9% | growth at 10 µM [32]: 102% | growth at 10 µM [33]: 112% | growth at 10 µM [34]: 116%

COc1ccc(Cn2cc(C(=O)N/N=C3/C(=O)Nc4c(C)cccc43)nn2)cc1
growth at 10 µM [1]: 82.8% | growth at 10 µM [2]: 78.9% | growth at 10 µM [3]: 90% | growth at 10 µM [4]: 76.6% | growth at 10 µM [5]: 85.3% | growth at 10 µM [6]: 107% | growth at 10 µM [7]: 51.3% | growth at 10 µM [8]: 73% | growth at 10 µM [9]: 77.5% | growth at 10 µM [10]: 101% | growth at 10 µM [11]: 7.1% | growth at 10 µM [12]: 95.6% | growth at 10 µM [13]: 87.3% | growth at 10 µM [14]: 111% | growth at 10 µM [15]: 108% | growth at 10 µM [16]: 40.5% | growth at 10 µM [17]: 71.9% | growth at 10 µM [18]: 82% | growth at 10 µM [19]: 91.9% | growth at 10 µM [20]: 93.7% | growth at 10 µM [21]: 84.8% | growth at 10 µM [22]: -28.2% | growth at 10 µM [23]: 67.6% | growth at 10 µM [24]: 71.2% | growth at 10 µM [25]: 43.5% | growth at 10 µM [26]: 101% | growth at 10 µM [27]: 77.1% | growth at 10 µM [28]: 81.9% | growth at 10 µM [29]: 56.1% | growth at 10 µM [30]: 14.8% | growth at 10 µM [31]: 61.3% | growth at 10 µM [32]: 60.4% | growth at 10 µM [33]: 84.1% | growth at 10 µM [34]: 103%

COc1ccc(Cn2cc(C(=O)N/N=C3/C(=O)Nc4c(Cl)cccc43)nn2)cc1
growth at 10 µM [1]: 106% | growth at 10 µM [2]: 97.3% | growth at 10 µM [3]: 106% | growth at 10 µM [4]: 80.3% | growth at 10 µM [5]: 102% | growth at 10 µM [6]: 102% | growth at 10 µM [7]: 105% | growth at 10 µM [8]: 99.7% | growth at 10 µM [9]: 84% | growth at 10 µM [10]: 99.3% | growth at 10 µM [11]: 91.6% | growth at 10 µM [12]: 107% | growth at 10 µM [13]: 94.7% | growth at 10 µM [14]: 109% | growth at 10 µM [15]: 102% | growth at 10 µM [16]: 99.7% | growth at 10 µM [17]: 106% | growth at 10 µM [18]: 101% | growth at 10 µM [19]: 93.2% | growth at 10 µM [20]: 92.9% | growth at 10 µM [21]: 103% | growth at 10 µM [22]: 104% | growth at 10 µM [23]: 97.4% | growth at 10 µM [24]: 105% | growth at 10 µM [25]: 106% | growth at 10 µM [26]: 93.8% | growth at 10 µM [27]: 94.4% | growth at 10 µM [28]: 109% | growth at 10 µM [29]: 106% | growth at 10 µM [30]: 93.5% | growth at 10 µM [31]: 96.7% | growth at 10 µM [32]: 105% | growth at 10 µM [33]: 97.5% | growth at 10 µM [34]: 111%
